In patent US9809521B2, “Cannabidinoid derivatives” (priority 2011, dated 2017):
Where two headings read alike, the source gives them in different places.

Key:
[1] = tested on: MDA-MB231 cells; assay: Boyden chamber invasion assay; assay type: cell-based, human; settings: for IC50: Homo sapiens
Method: Boyden chamber MDA-MB231 cell invasion studies with CBD, Δ^9-THC, or WIN 55,212-2. Invasion is an important step towards breast cancer cell metastasis. Therefore, the effects of several cannabinoids were tested on their ability to modulate the migratory and invasiveness activity of the most aggressive human breast cancer cell line, MDA-MB231, in a reconstituted basement membrane in a Boyden chamber.
Assays using Id-1 promoter reporter transfected MDA-MB231 cells with CBD. To determine if Id-1 represented a key mediator of CBD effects in highly aggressive breast cancer cells, Id-1 was constitutively expressed into MDA-MB231 cells (+)Id-1 as described in FIG. 2. The ectopic Id-1 gene, which is not under the control of the endogenous promoter, was introduced in the cells using the pLXSN retroviral vector. As a control, cells were infected with an empty pLXSN vector (−)Id-1.
Boyden chamber MDA-MB231 cell invasion studies with CBD and O-1663 CBD analog. Boyden chamber studies for invasion by MDA-MB231 or U251 cells were performed with either CBD or O-1663 CBD analog.
To directly test whether the O-1663 CBD analog could co-target two distinct cannabinoid antitumor pathways, the effects of CBD and the O-1663 CBD analog on cell viability with multiple antagonists were probed (FIG. 25). […] The ability of the O-1663 CBD analog and CBD to inhibit invasion was next compared (FIG. 25, panel C).

[2] = tested on: Id-1; assay: Immunohistochemical detection of Id-1 in lung metastatic foci; assay type: in vivo, mouse
Method: CBD down-regulates Id-1 expression and breast cancer cell proliferation in lung metastatic foci. […] Lung tissue from mice treated with vehicle or CBD (1 mg/kg) were evaluated for Id-1 expression and Ki67, a marker of cellular proliferation (FIG. 5, panel A).
Immunohistochemical detection of Id-1 and Ki67 was performed in lung tissues of vehicle and CBD treated mice. Nuclei were stained with hematoxylin. […] The intensity of the immunohistochemical (IHC) detection of Id-1 was then graded from 0 to 4.

[3] = tested on: ACCM cells; assay: Lung metastasis after injection of ACCM cells; assay type: in vivo, mouse; settings: daily treatment
Method: Measuring the effect of CBD on the aggressiveness of head and neck as well as salivary gland cancer cells. Head and neck cancer cell lines (SAS and HSC-2 in the upper panels) and salivary gland cancer cell lines (ACCM and ACC2 in the lower panels) were treated with CBD.

[4] = tested on: 4T1 breast cancer cells; assay: Viability assay, combination with Paclitaxel; assay type: cell-based, mouse
Method: Viability Assays using drug combinations and statistical analysis: Multiple viability assays in a 96 well format were run for each compound and the average percent inhibition of cell viability was calculated and transformed to fraction affected (Fa) i.e., percent inhibitory effect. Additional CI values and a dose reduction index (DRI) were also calculated using Compusyn software. After determining the (IC50/Fa0.5) values of the drugs individually, components were then combined at the following concentration ranges: controls, 0.125×IC50, 0.25×IC50, 0.5×IC50 and a combination index was calculated where CI<1, =1, and >1 indicate synergism, additive effect, and antagonism, respectively.
Cell viability studies with 4T1 breast cancer cells using CBD in combination with Paclitaxel. […] The concentration response curves were first generated for Paclitaxel (PAC), CBD alone, and a combination of CBD and Paclitaxel (FIG. 11, panel A). The inhibitory values from the concentration response curves were then used to calculate combination index (CI) values at multiple combination ratios (FIG. 11, panel B). From which, the data was also used to calculate i) IC50 values, the slope of the curve (m) and a goodness of fit value (r).

[5] = tested on: U251 cells; assay: Cell cycle analysis (PI staining, FACS); assay type: cell-based, human; settings: THC 1.7 μM, CBD 0.4 μM
Method: Cell cycle analysis: U251 cells were grown in Petri dishes (100 mm×15 mm) and received drug treatments for 2 days. On the third day, the cells were harvested and centrifuged at 1200 rpm for 5 minutes. The pellet was washed 1× with PBS+1% BSA, and centrifuged again. The pellet was re-suspended in 0.5 ml of 2% paraformaldehyde (diluted with PBS) and left to fix overnight at room temperature. The next day the cells were pelleted and re-suspended in 0.5 ml 0.3% Triton in PBS and incubated for 5 minutes at room temperature. The cells were then washed 2 times with PBS+1% BSA. The cells were finally suspended in PBS (0.1% BSA) with 10 ug/ml Propidium Iodide and 100 μg/ml RNAse. The cells were incubated for 30 minutes at room temperature before being stored at 4° C. Cell cycle was measured using a FACS Calibur using Cell Quest Pro and Modfit software.
Apoptosis Studies using U251 cells with Δ^9-THC and/or CBD. […] Therefore, U251 cells were treated with THC and CBD alone or with the combination of the two, and cell cycle was analyzed using cell flow cytometery (FIG. 20). […] Additionally, there was an increase in the population of cells in the G2/M phase. These changes in G1, S and G2/M phase are hallmarks of cell cycle arrest.
Albeit, the magnitude of these effects was reduced compared to those observed with the combination treatment.

[6] = tested on: caspase 3, 7, 9 and PARP; assay: Western analysis of caspases and PARP in U251 cells; assay type: cell-based, human; settings: THC 1.7 μM, CBD 0.4 μM, three days
Excerpt: Caspases play a primary role in the regulation of programmed cell death.

[7] = tested on: U87 cells; assay: MTT cell proliferation assay; settings: Homo sapiens, U-87 MG, 72 h, read-out: CBD IC50, U87
[8] = tested on: pERK, JNK, p38 MAPK; assay: Western analysis of MAPK activity in U251 cells
[9] = target: CB2 receptors (Homo sapiens, UniProt P34972); assay: Selectivity screen for CB2 receptors; assay type: binding
Chain of CB2 receptors (P34972 whole entry): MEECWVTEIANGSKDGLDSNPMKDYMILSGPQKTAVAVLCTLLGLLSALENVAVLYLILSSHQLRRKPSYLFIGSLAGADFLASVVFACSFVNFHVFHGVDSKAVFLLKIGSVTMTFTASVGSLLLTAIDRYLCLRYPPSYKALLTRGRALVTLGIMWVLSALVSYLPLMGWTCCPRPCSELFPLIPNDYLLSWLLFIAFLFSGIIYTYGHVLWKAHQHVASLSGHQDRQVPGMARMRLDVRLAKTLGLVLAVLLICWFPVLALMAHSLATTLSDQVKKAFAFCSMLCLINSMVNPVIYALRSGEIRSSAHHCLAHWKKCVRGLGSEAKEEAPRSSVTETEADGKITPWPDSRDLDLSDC

In the case of `C=C(C)[C@@H]1CCC(C)=C[C@H]1c1c(O)cc(CCCCC)cc1O` [CBD, cannabidiol], the “cell invasiveness, (+)Id-1 cells” value ([1]; 1.5 μM, two days, cells ectopically expressing Id-1) is reported as “did not inhibit cell invasiveness”, the “cell invasiveness, control (−)Id-1 cells” value ([1]; 1.5 μM, two days, empty pLXSN vector) is reported as “significant reduction in cell invasiveness” and the “invasion of MDA-MB231 cells” value ([1]; 0.1, 1.0 or 1.5 μM) is reported as “significantly reduced the invasion”. For the same molecule, the IC50 ([1]; MDA-MB-231, 72 h, treated 3 days, modified Boyden chambers, read-out: IC50, invasion of MDA-MB231 cells) was 1000 nM, the IC50 ([1]; MDA-MB-231, Boyden chamber, confidence limits 110-610, read-out: IC50 for invasion) was 260 nM and the “lung foci strongly positive for Id-1” value ([2]; 1 mg/kg) was 5.6%. For the same molecule, the “intensity of IHC detection of Id-1, grade 0 to 4, average” value ([2]; mouse, in vivo) was “around 1”, the “number of lung metastatic foci” value [3] was “significantly reduced upon CBD treatment” and the “interaction with Paclitaxel (combination index)” value [4] was “acts synergistically with Paclitaxel”. The cell cycle phases [5] was “increases in the population of cells in G1 and G2/M phase and decreases in cells in S phase”, the “caspase 3, 7, 9 and PARP” value [6] was “no changes in caspase activity were observed” and the IC50 [7] was 700 nM. The “p-ERK, higher concentrations alone” value ([8]; 2.5 μM Δ^9-THC, 2.0 μM CBD, three days) was “small inhibition of p-ERK” and the pERK ([8]; THC 1.7 μM, CBD 0.4 μM, two days) was “no changes in pERK were observed”.
For `CCCCC(C)(C)c1cc(O)c(C2CCC(C3CCCCC3)CC2)c(O)c1` (stereo not drawn) [Compound O-1663], the “fold more potent than CBD at inhibiting invasion” value [1] was 1.7 fold, the “invasion by the cancerous cells compared with CBD” value ([1]; 1.0 μM, two days, MDA-MB231 or U251 cells) was “far superior to CBD in inhibiting invasion” and the IC50 ([1]; MDA-MB-231, 72 h, read-out: IC50, invasion of MDA-MB231 cells) was 600 nM. For the same molecule, the “selectivity CB2 receptors over CB1 receptors” value [9] was “selective for targeting CB2 receptors over CB1 receptors”.
